From patent publication US20140163082A1, “PYRAZOLYL COMPOUNDS FOR USE IN REVERSING REACTIVE GLIOSIS” (priority 2011, published 2014)

Columns and labels:
ischemic retinas = assay: Immunohistochemical analysis, in vivo (OIR retinas); design: species or system C57BL/6J mice; conditions: OIR mice, vs DMSO-treated retinas
Description: (§1) Retinal NV was induced in newborn mice as described previously. Briefly, P7 mice were exposed with their nursing mother, for 5 days [between P7 and P12] to hyperoxic conditions, by incubating them in an airtight chamber [PROOX 110 chamber O2 controller; Biospherix Ltd., Redfield, N.Y.] ventilated by a mixture of O2 and air to a final oxygen fraction of 75±2%. These incubation conditions induced vaso-obliteration and subsequent cessation of vascular development in the capillary beds of the central retina. At P12, the mice were allowed to recover in normal room air conditions and maintained for another 5 days [till P17], the day in which peak disease occurs. A condition of relative hypoxia resulted between P12 and P17, and extensive retinal NV developed in 100% of the mice. Age-matched animals with the hyperoxia-exposed groups were maintained identically, except they were exposed to room air [2]% O2, 79% N2] for the entire duration of the experiment. All animals were examined and sacrificed on the same days.
A group of hyperoxia-exposed animals [n=15] were injected intravitreally [into both eyes] at P12 and P15 with 3 μl of YC-1 [100 μM] [drug-treated group]. Another group of hyperoxiaexposed mice [n=15] were injected intravitreally [into both eyes] at P12 and P15 with 3 μl of DMSO [0.2% [v/v]] [mock-treated group]. Non-treated mice grown under ambient conditions, non-treated hyperoxia-exposed mice, DMSO-treated hyperoxia-exposed mice and YC-1-treated hyperoxia-exposed mice, were all examined at different critical time points for qualitative assessment of the retinal vasculature by fluorescein angiography.
Mouse retinas were dissected and prepared for immunohistochemical analysis, fixed in 4% paraformaldehyde in 0.1 M PBS for 15 min at room temperature and embedded in paraffin, sectioned [5 μm]. Tissue sections were deparaffinized, hydrated, and later exposed to heat induced antigen retrieval using a microwave oven [three 5-minute cycles in citrate buffer, pH 6.0], endogenous peroxidase was abolished with methanol, and hydrogen peroxide and nonspecific background staining was blocked by incubating the tissue sections for 5 minutes in normal swine serum. Subsequently, all slides were washed three times in PBS, and incubated for 1 hour with primary anti-[HIF-1α, VEGF, PDGF-B, GFAP, iNOS, and β-actin] antibodies. The sections were washed with TBST and incubated with EnVision Polymer HRP secondary antibody [DAKO, Carpinteria, Calif.] for 30 minutes. All slides were stained with DAB solution and counterstained with hematoxylin. Slides were cover slipped [Permount; Fisher Scientific, Fairlawn, N.J.] and examined by light microscopy. Negative controls were performed by omitting the primary antibodies. Sections were photographed under a microscope [Zeiss Axiovert 135, Thornwood, N.Y.], and images were acquired a digital camera [AxioCam, N.Y.]. All retinas were examined at X60 objective. The staining intensity in our series ranged from a weak blush to moderate or strong. The amount of cells staining with the antibody was further categorized as focal [<10%], patchy [10%-50%], and diffuse [>50%]. For meaningful semiquantitative analysis, focal and/or weak staining was considered equivocal staining, and patchy or diffuse staining was either subcategorized as either moderate or strong staining. All Immunohistochemical analyses were measured by Metamorph digital image software [Molecular Devices, Sunnyvale, Calif.].

rMC-1 cells = assay: Real time RT-PCR analysis, in vitro, rMC-1; format: cell-based
Description: A transformed Müller cell line [rMC-1] were grown in cell cultures in DMEM supplemented with 15% FBS, as well as with a fungicide mixture and 0.5% gentamicin in a humidified atmosphere of 5% CO2/95% air. Medium was changed every 2-3 days, and cells were grown to confluence in a 150-mm dish. Cells were split into 60-mm dishes and were used in the experiments when confluent. […] cells are immortalized rat retinal neurosensory/neuoroglial progenitor cells, by transfection with Adenovirus 12S E1A into the neonatal retinal tissue. […] cells express genes characteristic of neurons, as well as functional neuronal properties. […] cells were cultured in DMEM/F12 medium in a 1:1 mixture, supplemented with 5% FBS, 1.5 mM L-glutamine, 7.5 mM sodium pyruvate, 0.1 mM nonessential amino acids, 1×MEM, 0.37% sodium bicarbonate and 10 μg/ml gentamicin. Cells were incubated at 37° C. in the presence of 5% CO2. Human retinal microvascular endothelial cells [[…]][40,000 cells/well] were seeded in a 96-well plate and allowed to adhere overnight and incubated at 37° C. in normoxia. Cells were then cultured in 150 μl of CS-C medium supplemented with 10% FBS and in the presence of 1-100 μM YC-1 or DMSO [0.2%]. Cells were placed in airtight chambers [BioSpherix, Redfield, N.Y.] and the O2 tension was maintained at 1.2% by using Pro-Ox Model 110 O2 regulator [BioSpherix, Redfield, N.Y.]. The chamber was purged with a gas mixture of 5.32% CO2, and 93.48% N2. […] We used the primers summarized in [FIG. 6C] for RT-PCR. Gene-specific molecular beacons and primers were designed to encompass the genes of interest, with beacon's annealing site to overlap with the exon-exon junctions for additional specificity [Beacon Designer 6.0, Premier Biosoft International, Palo Alto, Calif., USA]. Threshold cycle [Ct] values for the different samples were utilized for the calculation of gene expression fold change using the formula 2 to the minus power of delta delta ct. Fold changes in the HIF-1, VEGF, PDGF-B, GFAP and iNOS gene relative to the β-actin endogenous control gene were determined by the following equation: fold change=2-Δ[ΔC T], where change in threshold cycle [ΔCT]=CT [gene of interest]-CT [β-actin] and Δ [ΔCT]=ΔCT [treated]-ΔCT [untreated].

[1] = system: retinal vasculature in OIR mouse model; assay: Morphometric assessment of retinal vascular density (CD31 staining), OIR mouse model; format: in vivo, C57BL/6J mice; conditions: OIR mice, P17; DMSO 88, normoxic 154
Description: as §1, with “Age-matched animals with the hyperoxia-exposed groups were maintained identically, except they were exposed to room air [2]% O2, 79% N2] for the entire duration of the experiment. All animals were examined and sacrificed on the same days.” left out
Retinas were harvested at various time points and fixed with 4% paraformaldehyde (PFA) and methanol followed by blocking in 50% FBS/20% normal goat serum for 1 hour at room temperature. […] Quantitation of PECAM/CD-31 immunostaining was processed morphometrically using Metamorph™ imaging software [Universal Imaging, Sunnyvale, Calif.] to determine the area of positive staining for YC-1-treatedt vs. control group. […] All results were expressed as meant S.E.M. Differences were considered statistically significant at **P<0.01.

[2] = rMC-1, hypoxia 48 hours, YC-1 25-100 μM, vs DMSO-treated hypoxic cells

OCc1ccc(-c2nn(Cc3ccccc3)c3ccccc23)o1 [YC-1, 3-(5′-hydroxymethyl-2′-furyl)-1-benzylindazole]
GFAP immunoexpression in retina (ischemic retinas): significant down-regulation
HIF-1 immunoexpression in retina (ischemic retinas): significant inhibition
PDGF-B immunoreactivity in retina (ischemic retinas): significantly inhibited
VEGF immunoexpression in retina (ischemic retinas): significant inhibition
iNOS immunoreactivities in retina (ischemic retinas): significantly down-regulated
PDGF-B mRNA level (rMC-1 cells; [2]): significant dose-dependent attenuations
VEGF mRNA level (rMC-1 cells; [2]): significant dose-dependent attenuations
iNOS mRNA level (rMC-1 cells; [2]): significant dose-dependent attenuations
GFAP mRNA level (rMC-1 cells; rMC-1, hypoxia, YC-1 25-100 μM, vs DMSO-treated hypoxic cells, normalized to β-actin): significant dose-dependent attenuations
HIF-1α message level (rMC-1 cells; rMC-1, pre- vs post-YC-1 treatment): no differences
mean vascular density (endothelial cells per reticle square, CD31) [1]: 148±2
